# Test results: patent US4791215A, “Derivatives of glutamic acid and aspartic acid” (priority 1984, dated 1988)
# Test system: morphine analgesia
# Test: Increase in analgesia of morphine, Tail Flick Test (Experiment 1)
# Assay type: in vivo, rats
# Conditions: for percentage variation of latency of pain sensation / M (10-90) ± SE, mean percentage variation of latency: compound 10 mg/kg i.p. + morphine 2 mg/kg; for M (10-90) ± SE, mean percentage variation of latency: mean 10-90 min; for Power ratio with respect to morphine alone: rat, in vivo
# Procedure: Experiment No: 1 Increase in analgesia of analgesic-narcotic drugs in rats by the Tail Flick Test
# The method is that described by Harris et al. (J. Pharmacol. Exp. Ther. 143 (1964) 141-148).
# Male rats are used having a weight of about 150-200 g which have not fasted. A point on the tail is chosen and irradiated by a heat source (75° C.) and the time (in seconds) for which the animal remains without moving its tail is measured.
# A maximum period of time of 8 seconds under the heat source is chosen, after which the animal is, in any case, removed to avoid tissue damage. The measurement is effected before (controls) and after treatment with the drugs.
# The percentage variation is calculated for each individual animal by the following formula: [formula] The measurements were carried out 10, 20, 30, 45, 60 and 90 minutes after treatment with the analgesics.
structure (smiles),measurement,setting,value
CCCNC(=O)CCC(NC(=O)c1ccc(C)c(C)c1)C(=O)O [Compound D-16],percentage variation of latency of pain sensation,10',29.7 ± 21%
same,percentage variation of latency of pain sensation,20',42.8 ± 18%
same,percentage variation of latency of pain sensation,30',40.1 ± 22%
same,percentage variation of latency of pain sensation,45',35.4 ± 18%
same,percentage variation of latency of pain sensation,60',33.3 ± 20%
same,percentage variation of latency of pain sensation,90',23.3%
same,"M (10-90) ± SE, mean percentage variation of latency",,34.1 ± 17%
same,Power ratio with respect to morphine alone,,1.14
CCCCNC(=O)C(CCC(=O)O)NC(=O)c1ccc(CCC)cc1 (centres unmarked) [Compound C-44],percentage variation of latency of pain sensation,10',-1.6 ± 11%
same,percentage variation of latency of pain sensation,20',17.0 ± 6%
same,percentage variation of latency of pain sensation,30',24.9%
same,percentage variation of latency of pain sensation,45',26.9 ± 19%
same,percentage variation of latency of pain sensation,60',35.1 ± 17%
same,percentage variation of latency of pain sensation,90',39.8 ± 8%
same,"M (10-90) ± SE, mean percentage variation of latency",,23.7 ± 15%
same,Power ratio with respect to morphine alone,,0.79
CCCCNC(=O)C(CCC(=O)O)NC(=O)c1ccc(CC)cc1 (centres unmarked) [Compound C-43],percentage variation of latency of pain sensation,10',54.1 ± 17%
same,percentage variation of latency of pain sensation,20',44.4 ± 23%
same,percentage variation of latency of pain sensation,30',38.9 ± 26%
same,percentage variation of latency of pain sensation,45',36.8 ± 27%
same,percentage variation of latency of pain sensation,60',47.8 ± 23%
same,percentage variation of latency of pain sensation,90',22.5 ± 13%
same,"M (10-90) ± SE, mean percentage variation of latency",,40.7 ± 11%
same,Power ratio with respect to morphine alone,,1.36
CCCCNC(=O)CCC(NC(=O)c1ccc(CCC)cc1)C(=O)O [Compound D-14],percentage variation of latency of pain sensation,10',69.2 ± 14%
same,percentage variation of latency of pain sensation,20',93.4 ± 7%
same,percentage variation of latency of pain sensation,30',46.8 ± 15%
same,percentage variation of latency of pain sensation,45',71.3 ± 17%
same,percentage variation of latency of pain sensation,60',89.1 ± 9%
same,percentage variation of latency of pain sensation,90',60.3%
same,"M (10-90) ± SE, mean percentage variation of latency",,71.1 ± 14%
same,Power ratio with respect to morphine alone,,2.41
CCN(CC)C(=O)C(CCC(=O)O)NC(=O)c1ccc(C)c(C)c1 (centres unmarked) [Compound C-40],percentage variation of latency of pain sensation,10',43.8 ± 15%
same,percentage variation of latency of pain sensation,20',69.1%
same,percentage variation of latency of pain sensation,30',49.0 ± 23%
same,percentage variation of latency of pain sensation,45',85.6 ± 6%
same,percentage variation of latency of pain sensation,60',76.5 ± 17%
same,percentage variation of latency of pain sensation,90',61.5 ± 14%
same,"M (10-90) ± SE, mean percentage variation of latency",,64.2 ± 16%
same,Power ratio with respect to morphine alone,,2.15
Cc1ccc(C(=O)NC(CCC(=O)O)C(=O)N(C)C)cc1C (centres unmarked) [Compound C-50],percentage variation of latency of pain sensation,10',22.3 ± 13%
same,percentage variation of latency of pain sensation,20',68.9 ± 9%
same,percentage variation of latency of pain sensation,30',60.2 ± 19%
same,percentage variation of latency of pain sensation,45',49.4 ± 14%
same,percentage variation of latency of pain sensation,60',73.5 ± 15%
same,percentage variation of latency of pain sensation,90',24.7 ± 6%
same,"M (10-90) ± SE, mean percentage variation of latency",,49.8 ± 22%
same,Power ratio with respect to morphine alone,,1.67
CCCNC(=O)C(CCC(=O)O)NC(=O)c1ccc(C)c(C)c1 (centres unmarked) [Compound C-45],percentage variation of latency of pain sensation,10',57.2 ± 18%
same,percentage variation of latency of pain sensation,20',99.7 ± 0.3%
same,percentage variation of latency of pain sensation,30',95.7 ± 4%
same,percentage variation of latency of pain sensation,45',93.1 ± 7%
same,percentage variation of latency of pain sensation,60',77.7 ± 11%
same,percentage variation of latency of pain sensation,90',80.4%
same,"M (10-90) ± SE, mean percentage variation of latency",,84.0 ± 16%
same,Power ratio with respect to morphine alone,,2.82
CC(C)c1ccc(C(=O)NC(CCC(=O)O)C(=O)NC2CCCCC2)cc1 (centres unmarked) [Compound C-49],percentage variation of latency of pain sensation,10',62.1 ± 9%
same,percentage variation of latency of pain sensation,20',100.0 ± 0%
same,percentage variation of latency of pain sensation,30',97.6 ± 2%
same,percentage variation of latency of pain sensation,45',99.5 ± 0.5%
same,percentage variation of latency of pain sensation,60',99.2 ± 0.5%
same,percentage variation of latency of pain sensation,90',65.8 ± 0.8%
same,"M (10-90) ± SE, mean percentage variation of latency",,87.4%
same,Power ratio with respect to morphine alone,,2.93
Cc1ccc(C(=O)NC(CCC(=O)O)C(=O)N2CCOCC2)cc1C (centres unmarked) [Compound C-51],percentage variation of latency of pain sensation,10',78.7 ± 18%
same,percentage variation of latency of pain sensation,20',82.8%
same,percentage variation of latency of pain sensation,30',90.5 ± 10%
same,percentage variation of latency of pain sensation,45',86.4 ± 14%
same,percentage variation of latency of pain sensation,60',65.6 ± 13%
same,percentage variation of latency of pain sensation,90',48.5 ± 10%
same,"M (10-90) ± SE, mean percentage variation of latency",,75.4 ± 16%
same,Power ratio with respect to morphine alone,,2.53
CCCCNC(=O)CCC(NC(=O)c1ccc(CC)cc1)C(=O)O [Compound D-13],percentage variation of latency of pain sensation,10',7.1 ± 8%
same,percentage variation of latency of pain sensation,20',32%
same,percentage variation of latency of pain sensation,30',62.5 ± 23%
same,percentage variation of latency of pain sensation,45',31.8 ± 21%
same,percentage variation of latency of pain sensation,60',48.5 ± 22%
same,percentage variation of latency of pain sensation,90',50.9 ± 14%
same,"M (10-90) ± SE, mean percentage variation of latency",,38.8 ± 20%
same,Power ratio with respect to morphine alone,,1.30
Cc1ccc(C(=O)NC(CCC(=O)O)C(=O)N2CCCCC2)cc1C (centres unmarked) [Compound C-52],percentage variation of latency of pain sensation,10',72.8 ± 15%
same,percentage variation of latency of pain sensation,20',95.8 ± 3%
same,percentage variation of latency of pain sensation,30',96.3 ± 4%
same,percentage variation of latency of pain sensation,45',85.5 ± 10%
same,percentage variation of latency of pain sensation,60',87.6%
same,percentage variation of latency of pain sensation,90',45.3 ± 6%
same,"M (10-90) ± SE, mean percentage variation of latency",,80.6 ± 19%
same,Power ratio with respect to morphine alone,,2.70
CCCN(CCC)C(=O)C(CCC(=O)O)NC(=O)c1ccc(CC(C)C)cc1 (centres unmarked) [Compound C-38],percentage variation of latency of pain sensation,10',53.8%
same,percentage variation of latency of pain sensation,20',85.7 ± 10%
same,percentage variation of latency of pain sensation,30',92.0 ± 8%
same,percentage variation of latency of pain sensation,45',99.1 ± 1%
same,percentage variation of latency of pain sensation,60',91.2 ± 9%
same,percentage variation of latency of pain sensation,90',51.1 ± 14%
same,"M (10-90) ± SE, mean percentage variation of latency",,78.8%
same,Power ratio with respect to morphine alone,,2.64
CCCCN(CCCC)C(=O)C(CCC(=O)O)NC(=O)c1cccc(C)c1 (centres unmarked) [Compound C-53],percentage variation of latency of pain sensation,10',31.2 ± 15%
same,percentage variation of latency of pain sensation,20',46.7 ± 28%
same,percentage variation of latency of pain sensation,30',70.2 ± 23%
same,percentage variation of latency of pain sensation,45',76.9 ± 22%
same,percentage variation of latency of pain sensation,60',45.6 ± 27%
same,percentage variation of latency of pain sensation,90',12.6 ± 25%
same,"M (10-90) ± SE, mean percentage variation of latency",,47.2 ± 24%
same,Power ratio with respect to morphine alone,,1.58
